Measurements reported in US9776990B2, “Isoindolone derivatives” (AbbVie Inc., priority 2012, dated 2017).
Like-named read-outs stand apart in the source and are kept apart here.

Experiments:
[1] = target: BRD4 (BDI_K57-E168) (Homo sapiens (Human), UniProt O60885); assay: TR-FRET bromodomain binding assay, BRD4 first bromodomain; conditions: His-tagged BD1, 100 nM Alexa647 probe
Experimental: (§1) A time-resolved fluorescence resonance energy transfer (TR-FRET) assay was used to determine the affinities of compounds of the Examples listed in Table 1 for each bromodomain of BRD4. His-tagged first (BD1: amino acids K57-E168) and second (BD2: amino acids E352-E168) bromodomains of BRD4 were expressed and purified. An Alexa647-labeled BET-inhibitor was used as the fluorescent probe in the assay.
(§2) Compound dilution series were prepared in DMSO via a 3-fold serial dilution from 2.5 mM to 42 nM. Compounds were then diluted 6:100 in assay buffer (20 mM Sodium Phosphate, pH 6.0, 50 mM NaCl, 1 mM EDTA, 0.01% Triton X-100, 1 mM DTT) to yield 3× working solutions. Six microliters (μL) of the working solution was then transferred to white, low-volume assay plates (Costar #3673). A 1.5× assay mixture containing His-tagged bromodomain, Europium-conjugated anti-His antibody (Invitrogen PV5596) and the Alexa-647-conjugated probe molecule was also prepared. Twelve μL of this solution were added to the assay plate to reach a final volume of 18 μL. The final concentration of 1× assay buffer contains 2% DMSO, 50 μM−0.85 nM compound, 8 nM bromodomain, 1 nM antibody and 100 or 30 nM probe (for BDI or BDII, respectively). After a one-hour incubation at room temperature, TR-FRET ratios were determined using an Envision multilabel plate reader (Ex 340, Em 495/520).
(§3) TR-FRET data were normalized to the means of 24 no-compound controls (“high”) and 8 controls containing 1 μM un-labeled probe (“low”). Percent inhibition was plotted as a function of compound concentration and the data were fit with the 4 parameter logistic equation to obtain IC50s Inhibition constants (Ki) were calculated from the IC50s, probe Kd and probe concentration. Typical Z′ values were between 0.65 and 0.75. The minimum significant ratio was determined to evaluate assay reproducibility (Eastwood et al., (2006) J Biomol Screen, 11: 253-261). The MSR was determined to be 2.03 for BDI and 1.93 for BDII, and a moving MSR (last six run MSR overtime) for both BDI and BDII was typically <3.

[2] = target: BRD4 (BDII_E352-M457) (Homo sapiens (Human), UniProt O60885); assay: TR-FRET bromodomain binding assay, BRD4 second bromodomain; conditions: His-tagged BD2, 30 nM Alexa647 probe
Experimental: as §1, §2, §3

[3] = test system: breast cancer cell line MX-1; assay: MX-1 cell line proliferation assay (3-day, Cell Titer Glo); format: cell-based, human; conditions: 72 hours, read-out: Cellular proliferation: EC50
Experimental: The impact of compounds of the Examples on cancer cell proliferation was determined using the breast cancer cell line MX-1 (ATCC) in a 3-day proliferation assay. MX-1 cells were maintained in RPMI supplemented with 10% FBS at 37 C.° and an atmosphere of 5% CO2. For compound testing, MX-1 cells were plated in 96-well black bottom plates at a density of 5000 cells/well in 90 μl of culture media and incubated at 37° overnight to allow cell adhesion and spreading. Compound dilution series were prepared in DMSO via a 3-fold serial dilution from 3 mM to 0.1 μM. The DMSO dilution series were then diluted 1:100 in phosphate buffered saline, and 10 μL of the resulted solution were added to the appropriate wells of the MX-1 cell plate. The final compound concentrations in the wells were 3, 1, 0.3, 0.1, 0.03, 0.01, 0.003, 0.001, 0.0003 and 0.0001 μM.
Luminescence readings from the Cell Titer Glo assay were normalized to the DMSO treated cells and analyzed using the GraphPad Prism software with sigmoidal curve fitting to obtain EC50s. The minimum significant ratio (MSR) was determined to evaluate assay reproducibility (Eastwood et al., (2006) J Biomol Screen, 11: 253-261).

Ki [1] | Ki [2] | EC50 ([3]; Homo sapiens, MX1, MX-1 cells) | EC50 ([3]; MX-1 cells) | Structure (SMILES)
526 nM | 4140 nM | > 3000 nM |  | Cc1[nH]c(-c2ccccc2OCc2cccnc2)c2c1C(=O)CCC2 [Example 37, 3-methyl-1-[2-(pyridin-3-ylmethoxy)phenyl]-2,5,6,7-tetrahydro-4H-isoindol-4-one]
943 nM | 2030 nM | 1230 nM |  | Cc1[nH]c(-c2ccccc2OCc2ccccc2)c2c1C(=O)CCC2 [Example 18, 1-[2-(benzyloxy)phenyl]-3-methyl-2,5,6,7-tetrahydro-4H-isoindol-4-one]
68 nM | 653 nM | 734 nM |  | Cc1[nH]c(-c2cc(C(=O)NCC3CCCO3)ccc2Oc2ccccc2)c2c1C(=O)CCC2 (stereo not drawn) [Example 56, 3-(3-methyl-4-oxo-4,5,6,7-tetrahydro-2H-isoindol-1-yl)-4-phenoxy-N-(tetrahydrofuran-2-ylmethyl)benzamide]
71 nM | 551 nM | 609 nM |  | CC(=O)Nc1ccc(Oc2ccc(F)cc2F)c(-c2[nH]c(C)c3c2CCCC3=O)c1 [Example 50, N-[4-(2,4-difluorophenoxy)-3-(3-methyl-4-oxo-4,5,6,7-tetrahydro-2H-isoindol-1-yl)phenyl]acetamide]
569 nM | 1090 nM | > 3000 nM |  | CC(=O)Nc1ccc(Oc2ccccc2)c(-c2c3c(c(C)n2C)C(=O)CCC3)c1 [Example 42, N-[3-(2,3-dimethyl-4-oxo-4,5,6,7-tetrahydro-2H-isoindol-1-yl)-4-phenoxyphenyl]acetamide]
161 nM | 216 nM | 370 nM |  | Cc1c2c(c(-c3cc(NS(C)(=O)=O)ccc3Oc3ccccc3)n1C)CCCC2=O [Example 41, N-[3-(2,3-dimethyl-4-oxo-4,5,6,7-tetrahydro-2H-isoindol-1-yl)-4-phenoxyphenyl]methanesulfonamide]
12 nM | 68 nM | 110 nM |  | Cc1[nH]c(-c2cc(NS(C)(=O)=O)ccc2Oc2ccccc2)c2c1C(=O)CC(C)C2 (stereo not drawn) [Example 67, N-[3-(3,6-dimethyl-4-oxo-4,5,6,7-tetrahydro-2H-isoindol-1-yl)-4-phenoxyphenyl]methanesulfonamide]
1820 nM | 568 nM | > 3000 nM |  | Cc1[nH]c(-c2cc(N)ccc2Sc2ccccc2)c2c1C(=O)CCC2 [Example 43, 1-[5-amino-2-(phenylsulfanyl)phenyl]-3-methyl-2,5,6,7-tetrahydro-4H-isoindol-4-one]
77 nM | 511 nM | 1390 nM |  | CCNC(=O)c1ccc(Oc2ccccc2)c(-c2[nH]c(C)c3c2CCCC3=O)c1 [Example 55, N-ethyl-3-(3-methyl-4-oxo-4,5,6,7-tetrahydro-2H-isoindol-1-yl)-4-phenoxybenzamide]

Second part, the molecule before the results:

Structure (SMILES) | Ki [1] | Ki [2] | EC50 ([3]; Homo sapiens, MX1, MX-1 cells) | EC50 ([3]; MX-1 cells)
COc1cc(-c2[nH]c(C)c3c2CCCC3=O)cc(OC)c1OC [Example 7, 3-methyl-1-(3,4,5-trimethoxyphenyl)-2,5,6,7-tetrahydro-4H-isoindol-4-one] | 261 nM | 805 nM | 676 nM | 
Cc1[nH]c(-c2cc(NS(=O)(=O)N(C)C)ccc2Oc2ccc(F)cc2F)c2c1C(=O)CCC2 [Example 49, N′-[4-(2,4-difluorophenoxy)-3-(3-methyl-4-oxo-4,5,6,7-tetrahydro-2H-isoindol-1-yl)phenyl]-N,N-dimethylsulfuric Diamide] | 43 nM | 192 nM | 364 nM | 
Cc1[nH]c(-c2ccc(S(C)(=O)=O)cc2)c2c1C(=O)CCC2 [Example 8, 3-methyl-1-[4-(methylsulfonyl)phenyl]-2,5,6,7-tetrahydro-4H-isoindol-4-one] | 1430 nM | 3820 nM | 2500 nM | 
Cc1[nH]c(-c2cc(N)ccc2Oc2ccc(F)cc2F)c2c1C(=O)CCC2 [Example 45, 1-[5-amino-2-(2,4-difluorophenoxy)phenyl]-3-methyl-2,5,6,7-tetrahydro-4H-isoindol-4-one] | 40 nM | 198 nM | 329 nM | 
Cc1[nH]c(-c2cc(NS(C)(=O)=O)ccc2Oc2ccccc2)c2c1C(=O)CC(C(C)C)C2 (stereo not drawn) [Example 71, N-{3-[3-methyl-4-oxo-6-(propan-2-yl)-4,5,6,7-tetrahydro-2H-isoindol-1-yl]-4-phenoxyphenyl}methanesulfonamide] | 375 nM | 926 nM | 950 nM | 
Cc1[nH]c(-c2cccc(C(N)=O)c2)c2c1C(=O)CCC2 [Example 9, 3-(3-methyl-4-oxo-4,5,6,7-tetrahydro-2H-isoindol-1-yl)benzamide] | 961 nM | 3100 nM | 2750 nM | 
Cc1[nH]c(-c2ccccc2OCC2CCOC2)c2c1C(=O)CCC2 (stereo not drawn) [Example 29, 3-methyl-1-[2-(tetrahydrofuran-3-ylmethoxy)phenyl]-2,5,6,7-tetrahydro-4H-isoindol-4-one] | 315 nM | 2920 nM | > 3000 nM | 
Cc1[nH]c(-c2cc(NS(C)(=O)=O)ccc2Sc2ccccc2)c2c1C(=O)CCC2 [Example 44, N-[3-(3-methyl-4-oxo-4,5,6,7-tetrahydro-2H-isoindol-1-yl)-4-(phenylsulfanyl)phenyl]methanesulfonamide] | 67 nM | 37 nM | 645 nM | 
Cc1[nH]c(-c2cc(NS(=O)(=O)CC(F)(F)F)ccc2Oc2ccc(F)cc2F)c2c1C(=O)CCC2 [Example 48, N-[4-(2,4-difluorophenoxy)-3-(3-methyl-4-oxo-4,5,6,7-tetrahydro-2H-isoindol-1-yl)phenyl]-2,2,2-trifluoromethanesulfonamide] | 68 nM | 43 nM |  | 564 nM
Cc1[nH]c(-c2ccc(S(N)(=O)=O)cc2)c2c1C(=O)CCC2 [Example 5, 4-(3-methyl-4-oxo-4,5,6,7-tetrahydro-2H-isoindol-1-yl)benzenesulfonamide] | 1400 nM | 2030 nM | 3700 nM | 
Cc1[nH]c(-c2ccccc2OCC2CCCO2)c2c1C(=O)CCC2 (stereo not drawn) [Example 31, 3-methyl-1-[2-(tetrahydrofuran-2-ylmethoxy)phenyl]-2,5,6,7-tetrahydro-4H-isoindol-4-one] | 765 nM | 4680 nM | > 3000 nM | 
Cc1[nH]c(-c2ccccc2OCC2CCOCC2)c2c1C(=O)CCC2 [Example 32, 3-methyl-1-[2-(tetrahydro-2H-pyran-4-ylmethoxy)phenyl]-2,5,6,7-tetrahydro-4H-isoindol-4-one] | 202 nM | 1940 nM | 1880 nM | 
